How the values were obtained:
[1] = test system: MAP kinase; assay: MAP kinase activation in Rat1 cells compared to EGF and TPA (Example 3, western blot, densitometry); format: cell-based, rat; details: 15 minutes; for Activity (% of EGF-activation), Conc. 1 / Activity (% of TPA-activation), Conc. 1: compound 1 × 10^-4 M; for Activity (% of EGF-activation), Conc. 1 / Activity (% of EGF-activation), Conc. 2: relative to EGF 50 ng/ml; for Activity (% of TPA-activation), Conc. 1 / Activity (% of TPA-activation), Conc. 2: relative to TPA 100 nM; for Activity (% of EGF-activation), Conc. 2 / Activity (% of TPA-activation), Conc. 2: compound 1 × 10^-5 M
Method: Rat1 cells were grown in 6 cm cell culture dishes in a tissue culture incubator at 37° C. in an atmosphere containing 5% carbon dioxide. The Rat1 cells were serum-starved for 16 hours. Three groups of the Rat1 cells were then treated for 15 minutes with either epidermal growth factor (EGF) (50 ng/ml), 12-O-tetradecanoylphorbol-13-acetate (TPA) (100nM), or with one of the pheromone compounds at one of two concentrations identified in Table 2 below. EGF and TPA are compounds which are known to activate MAP kinase and therefore serve as a basis of comparing the relative activity of the pheromone compounds. The cells were then washed with phosphate buffered saline (PBS) and lysed with radioimmunoprotein assay (RIPA) buffer. The proteins were then separated by sodium dodecyl sulfate-polyacrylamide gel electrophoresis (SDS-PAGE), transferred onto a nitrocellulose membrane and probed with anti-MAPK antibodies to produce a blot. The MAP kinase activity for the EGF-treated cells, the TPA-treated cells and the pheromone compound-treated cells, was analyzed and calculated using densitometric analysis. The results shown in Table 2 are presented as percent of EGF-stimulated active MAP kinase levels or TPA-stimulated active MAP kinase levels, respectively.

[2] = test system: MAP kinase; assay: Screening method for pheromone compounds having MAP kinase modulating activity in Rat1 cells (Example 1); format: cell-based, rat; details: observed on screening in accordance with the described methods
Method: In a preferred screening method, as set forth in Example 1 herein, pheromone compounds with MAP kinase modulating activity are identified using Rat1 cells grown in cell culture dishes. Samples of the pheromone compound are added to respective cell culture dishes containing the Rat1 cells and incubated. A control group is established by treating a separate group of cell culture dishes containing Rat1 cells with the same solutions absent the pheromone compound. After incubation, the Rat1 cells are stimulated with epidermal growth factor to stimulate MAP kinase activation in the Rat1 cells. Upon completion of the incubation period, the Rat1 cells in each of the culture dishes are separately processed to obtain the corresponding cell extract containing proteins indicative of active kinase. The proteins are then separated using known electrophoresis techniques and prepared as a blot for the detection and measurement of active MAP kinase. The resulting blot is analyzed using densitometric techniques to measure the corresponding activity of the tested pheromone compound.
Rat1 cells were grown in 6 cm cell culture dishes in a tissue culture incubator at 37° C. in an atmosphere containing 5% carbon dioxide. The cells were serum-starved for 16 hours. […] A control group was established by adding to the remaining cell culture dishes the same solution absent the pheromone compound. After the 15 minute period, the Rat1 cells were stimulated with epidermal growth factor (EGF) (50 ng/ml) for about 15 minutes for one group and 30 minutes for a second group.
The Rat1 cells were then treated to remove the corresponding incubation medium and then the cells were rinsed twice each with 5 ml of cold phosphate buffered saline (PBS) and once with 5 ml of cold homogenizing buffer (Buffer H) containing 50 mM of β-glycerophosphate, (pH 7.3), 1.5 mM of ethylenebis(oxyethylenenitrilo)tetraacetic acid (EGTA), 1 mM of ethylenediaminetetraacetic acid (EDTA), 1 mM of dithiothreitol (DTT), 0.1 mM sodium orthovanadate, 1 mM benzamidine, 10 μg/ml of aprotinin, 10 μg/ml of leupeptin, and 2 μg/ml of pepstatin (2 μg/ml)+1% Triton-X-100.
The cells were harvested and lysed with 350 μl of cold Buffer H. Alternatively, the cells may be harvested and lysed with radioimmunoprotein assay buffer (RIPA buffer). Each extract was then centrifuged at 15,000×g for 15 minutes at 4° C. The resulting supernatants contained the protein extracts to be examined and were transferred to fresh, pre-cooled test tubes and kept on ice.
The proteins were then separated by sodium dodecyl sulfate-polyacrylamide gel electrophoresis (SDS-PAGE) and transferred, by western blotting, onto a nitrocellulose membrane.
The blot produced above was blocked with 2% bovine serum albumin (BSA) in Tris-buffered saline/Tween-20 (TBST) for 1 hour. The blot was then incubated with a monoclonal anti-active MAP kinase antibody obtained from Sigma, and diluted according to the manufacturer recommendations. The blot was incubated overnight at 4° C. Alternatively, the blot may also be incubated for about 30 minutes at 37° C., or from one to two hours at room temperature.
The treated blot was placed in a flat container and washed at least 3 times for 15 minutes each with TBST buffer at room temperature. The blot was then incubated with alkaline phosphatase-conjugated goat anti-mouse IgG obtained from Jackson Laboratories, diluted according to the manufacturer recommendations in TBST buffer for 45 minutes at room temperature. The blot was then subjected to a second washing, repeated 3 times, for 10 minutes each with TBST. An alkaline phosphatase (AP) detection technique was utilized to detect and measure the presence of active MAP kinase. Enhanced MAP kinase activity as compared to control is evidence that the compound is a MAP kinase activator. Lowered MAP kinase activity as compared to control is evidence that the compound is a MAP kinase inhibitor. […]

| Compound | Activity (% of EGF-activation), Conc. 1 [1] | Activity (% of TPA-activation), Conc. 1 [1] | Activity (% of EGF-activation), Conc. 2 [1] | Activity (% of TPA-activation), Conc. 2 [1] | mitogen-activating protein kinase modulation activity (activator or inhibitor) [2] |
| --- | --- | --- | --- | --- | --- |
| CCCCCC(C)=O [2-Heptanone] | 5% | 14% | 7% | 50% | activators |
| C=CC(C)(C)O [2-methyl-3-butene-2-ol] | 5% | 35% |  |  | activators |
| CCC(C)CCCC/C=C\CCCCCCC=O (stereo not drawn) [14-methyl-Cis-8-Hexadecenal] | 10% | 75% | 3% | 15% | activators |
| CCCCCCCCCC/C=C\CCCCC(C)C [Cis-2-methyl-7-Octadecene] | 8% | 60% | 8% | 45% | activators |
| CCCCCCCC/C=C\CCCOC(C)=O [Cis-4-Tridecen-1-yl-acetate] | 3% | 7% | 5% | 30% | activators |
| CCCC/C=C\CCCCCCOC(C)=O [Cis-7-Dodecenyl-acetate] | 7% | 20% | 8% | 17% | activators |
| CCCCCC/C=C\CCCCCC=O [Cis-7-Tetradecenal] | 7% | 20% | 5% | 10% | activators |
| CCCCCC/C=C\CCCCCCO [Cis-7-Tetradecenol] | 9% | 30% | 9% | 25% | activators |
| CCCCCC/C=C\CCCCCCOC(C)=O [Cis-7-Tetradecenyl-acetate] | 8% | 21% | 10% | 80% | activators |
| CCCCC/C=C\CCCCCCO [Cis-7-Tridecenol] | 12% | 80% | 9% | 60% | activators |
| CCCCCCCC/C=C\CCCCCCCCCCC [Cis-9-Heneicosene] |  |  | 3% | 22% | activators |
| CCCCC/C=C\CCCCCCCCO [Cis-9-Pentadecenol] | 14% | 95% | 6% | 30% | activators |
| CCCC/C=C\CCCCCCCCO [Cis-9-Tetradecenol] | 15% | 105% | 8% | 35% | activators |
| CCCC/C=C\CCCCCCCCOC=O [Cis-9-Tetradecenyl-formate] | 12% | 90% | 12% | 55% | activators |
| CCCC/C=C\CCCCCCCCC/C=C/C=O [Trans-2,Cis-13-Octadecadienal] | 4% | 30% | 8% | 40% | activators |
| CC/C=C\C/C=C\CCC/C=C/CCO [Trans-3,Cis-8,Cis-11-Tetradecatrienol] | 6% | 10% | 5% | 50% | activators |
| CCCC/C=C/CCCCOC(C)=O [Trans-5-decenyl-acetate] | 1% |  | 4% | 18% | activators |
| C/C=C/CCCCCCCCCO [Trans-10-Dodecenol] | 2% | 10% | 10% | 60% | activators |
| CCCCC/C=C\CCCC(=O)CCCCCCCCCC [cis-6-heneicosene-11-one] |  |  |  |  | activators |
| Cis-9-Undecenyl-acetate | 18% | 115% | 3% | 10% | activators |
| Heneicosene-11-one | 12% | 42% | 12% | 22% | activators |
